In patent publication US10130693B2, “Peptides, combination of peptides and scaffolds for use in immunotherapeutic treatment of various cancers” (Immatics Biotechnologies GmbH, priority 2015, dated 2018):

System: HLA-A*24
Assay: MHC binding assay, UV-ligand exchange with beta2m ELISA (exchange yield), HLA-A*24
Parameters: species or system human
Conditions: binding to HLA-A*24, UV-ligand exchange
Text: Candidate peptides for T cell based therapies according to the present invention were further tested for their MHC binding capacity (affinity). The individual peptide-MHC complexes were produced by UV-ligand exchange, where a UV-sensitive peptide is cleaved upon UV-irradiation, and exchanged with the peptide of interest as analyzed. Only peptide candidates that can effectively bind and stabilize the peptide-receptive MHC molecules prevent dissociation of the MHC complexes. To determine the yield of the exchange reaction, an ELISA was performed based on the detection of the light chain (β2m) of stabilized MHC complexes. The assay was performed as generally described in Rodenko et al. (Rodenko et al., 2006).
96 well MAXISorp plates (NUNC) were coated over night with 2 ug/ml streptavidin in PBS at room temperature, washed 4× and blocked for 1 h at 37° C. in 2% BSA containing blocking buffer. […] Peptide-MHC monomers of the UV-exchange reaction were diluted 100 fold in blocking buffer. Samples were incubated for 1 h at 37° C., washed four times, incubated with 2 ug/ml HRP conjugated anti-β2m for 1h at 37° C., washed again and detected with TMB solution that is stopped with […]. Absorption was measured at 450 nm. Candidate peptides that show a high exchange yield (preferably higher than 50%, most preferred higher than 75%) are generally preferred for a generation and production of antibodies or fragments thereof, and/or T cell receptors or fragments thereof, as they show sufficient avidity to the MHC molecules and prevent dissociation of the MHC complexes.

| Peptide exchange (MHC class I binding score, peptide exchange yield) | Substance |
| --- | --- |
| +++ (50%-75% = +++) | 269 (QYPYLQAFF; listed as Homo sapiens) [compound 269] |
| ++++ (>=75% = ++++) | 187 (AYAANVHYL; listed as Homo sapiens) [compound 187] |
| +++ (50%-75% = +++) | 113 (IYSFHTLSF; listed as Homo sapiens) [compound 113] |
| ++++ (>=75% = ++++) | 184 (IYSVGAFENF; listed as Homo sapiens) [compound 184] |
| +++ (50%-75% = +++) | 251 (VYTKALSSL; listed as Homo sapiens) [compound 251] |
| ++ (20%-49% = ++) | 374 (VFLPRVTEL; listed as Homo sapiens) [compound 374] |
| +++ (50%-75% = +++) | 205 (VYPVVLNQI; listed as Homo sapiens) [compound 205] |
| ++++ (>=75% = ++++) | 220 (SYSEIKDFL; listed as Homo sapiens) [compound 220] |
| ++++ (>=75% = ++++) | 223 (TFITQSPLL; listed as Homo sapiens) [compound 223] |
| +++ (50%-75% = +++) | 134 (AYIPTPIYF; listed as Homo sapiens) [compound 134] |
| + (<20% = +) | 124 (TYKDYVDLF; listed as Homo sapiens) [compound 124] |
| ++++ (>=75% = ++++) | 208 (TYLEKIDGF; listed as Homo sapiens) [compound 208] |
| +++ (50%-75% = +++) | 253 (IYGFFNENF; listed as Homo sapiens) [compound 253] |
| ++++ (>=75% = ++++) | 211 (VFKSEGAYF; listed as Homo sapiens) [compound 211] |
| +++ (50%-75% = +++) | 387 (KYTEKLEEI; listed as Homo sapiens) [compound 387] |
| +++ (50%-75% = +++) | 287 (IYNPNLLTASKF; listed as Homo sapiens) [compound 287] |
| +++ (50%-75% = +++) | 219 (SYLKAVFNL; listed as Homo sapiens) [compound 219] |
| +++ (50%-75% = +++) | 207 (LYSDAFKFIVF; listed as Homo sapiens) [compound 207] |
| +++ (50%-75% = +++) | 237 (KYVGQLAVL; listed as Homo sapiens) [compound 237] |
| +++ (50%-75% = +++) | 228 (IYQYVADNF; listed as Homo sapiens) [compound 228] |
| +++ (50%-75% = +++) | 279 (VWLPASVLF; listed as Homo sapiens) [compound 279] |
| ++++ (>=75% = ++++) | 379 (VFIAQGYTL; listed as Homo sapiens) [compound 379] |
| +++ (50%-75% = +++) | 314 (RYFKGDYSI; listed as Homo sapiens) [compound 314] |
| +++ (50%-75% = +++) | 247 (SFTKTSPNF; listed as Homo sapiens) [compound 247] |
| ++++ (>=75% = ++++) | 290 (KYGDFKLLEF; listed as Homo sapiens) [compound 290] |

| Peptide exchange (MHC class I binding score, peptide exchange yield) | Substance |
| --- | --- |
| ++ (20%-49% = ++) | 213 (SYAPPSEDLFL; listed as Homo sapiens) [compound 213] |
| +++ (50%-75% = +++) | 348 (IYLEHTESI; listed as Homo sapiens) [compound 348] |
| +++ (50%-75% = +++) | 304 (EYNEVANLF; listed as Homo sapiens) [compound 304] |
| +++ (50%-75% = +++) | 372 (VYVIEPHSMEF; listed as Homo sapiens) [compound 372] |
| +++ (50%-75% = +++) | 235 (VYKDSIYYI; listed as Homo sapiens) [compound 235] |
| ++++ (>=75% = ++++) | 274 (KQLDIANYELF; listed as Homo sapiens) [compound 274] |
| ++++ (>=75% = ++++) | 148 (SYGTVSQIF; listed as Homo sapiens) [compound 148] |
| ++++ (>=75% = ++++) | 231 (AFADVSVKF; listed as Homo sapiens) [compound 231] |
| +++ (50%-75% = +++) | 384 (RYFDVGLHNF; listed as Homo sapiens) [compound 384] |
| +++ (50%-75% = +++) | 302 (LYLPVHYGF; listed as Homo sapiens) [compound 302] |
| +++ (50%-75% = +++) | 245 (LYPQLFVVL; listed as Homo sapiens) [compound 245] |
| +++ (50%-75% = +++) | 199 (SYLNHLNNL; listed as Homo sapiens) [compound 199] |
| ++++ (>=75% = ++++) | 297 (TYIDTRTVF; listed as Homo sapiens) [compound 297] |
| +++ (50%-75% = +++) | 255 (VYQKIILKF; listed as Homo sapiens) [compound 255] |
| +++ (50%-75% = +++) | 347 (VYAEVNSL; listed as Homo sapiens) [compound 347] |
| +++ (50%-75% = +++) | 176 (FYINGQYQF; listed as Homo sapiens) [compound 176] |
| +++ (50%-75% = +++) | 315 (FYIPHVPVSF; listed as Homo sapiens) [compound 315] |
| ++++ (>=75% = ++++) | 262 (VYSSQFETI; listed as Homo sapiens) [compound 262] |
| +++ (50%-75% = +++) | 108 (PYLVVIHTL; listed as Homo sapiens) [compound 108] |
| +++ (50%-75% = +++) | 183 (PYLQDVPRI; listed as Homo sapiens) [compound 183] |
| ++ (20%-49% = ++) | 246 (KYLSVQLTL; listed as Homo sapiens) [compound 246] |
| +++ (50%-75% = +++) | 285 (VYVGDALLHAI; listed as Homo sapiens) [compound 285] |
| +++ (50%-75% = +++) | 227 (IYRFITERF; listed as Homo sapiens) [compound 227] |
| ++ (20%-49% = ++) | 226 (MYLKLVQLF; listed as Homo sapiens) [compound 226] |
| +++ (50%-75% = +++) | 281 (NYSPGLVSLIL; listed as Homo sapiens) [compound 281] |
